Assay results published in ChEMBL document CHEMBL4706474, “Tetrahydro-2-naphthyl and 2-Indanyl Triazolopyrimidines Targeting Plasmodium falciparum Dihydroorotate Dehydrogenase Display Potent and Selective Antimalarial Activity” (J Med Chem, 2016).
≈ marks a conversion by molar mass, not a printed value.

Assays:
[1] = Cmax in Swiss mouse at 20 mg/kg, po administered as single dose via gavage measured over 24 hrs by LC-MS analysis; assay type: ADME, organism-based; design: route oral, dose 20 mg/kg, time >24; conditions: in vivo
[2] = Apparent half-life in Sprague-Dawley rat at […], iv administered as infusion for 10 mins by LC-MS analysis; assay type: ADME, organism-based; conditions: in vivo, dose 1.1 mg/kg, read-out: t1/2(app) (converted)
[3] = Protein binding in human plasma assessed as bound fraction by LC-MS analysis based ultracentrifugation assay; assay type: ADME, cell-free; conditions: read-out: PPB (converted)
[4] = AUC (0 to infinity) in Sprague-Dawley rat at […], iv administered as infusion for 10 mins by LC-MS analysis; assay type: ADME, organism-based; design: route intravenous, dose 1.1 mg/kg, time 10 min; conditions: in vivo
[5] = Oral bioavailability in Sprague-Dawley rat at 18.3 mg/kg measured over 24 hrs by LC-MS analysis; assay type: ADME, organism-based; conditions: in vivo
[6] = Intrinsic clearance in mouse liver microsomes at 1 uM by LC-MS analysis; assay type: ADME, Microsome
[7] = Tmax in Swiss mouse at 20 mg/kg, po administered as single dose via gavage measured over 24 hrs by LC-MS analysis; assay type: ADME, organism-based; conditions: in vivo
[8] = Intrinsic clearance in rat liver microsomes assessed per mg protein at 1 uM by LC-MS analysis; assay type: ADME, Microsome; conditions: microsomes, 1 µM
[9] = Apparent half-life in Swiss mouse at 20 mg/kg, po administered as single dose via gavage measured over 24 hrs by LC-MS analysis; assay type: ADME, organism-based; conditions: in vivo
[10] = Unbound AUC (0 to infinity) in Sprague-Dawley rat at […], iv by LC-MS analysis; assay type: ADME, organism-based; conditions: in vivo, dose 1.1 mg/kg
[11] = Elimination half-life in Swiss mouse at 20 mg/kg, po administered as single dose via gavage measured over 24 hrs by LC-MS analysis; assay type: ADME, organism-based; conditions: in vivo, read-out: beta t1/2 (converted)
[12] = Inhibition of N-terminal His6-tagged dog DHODH expressed in Escherichia coli BL21 using L-DHO as substrate and CoQ as co-substrate by DCIP dye based spectrophotometric assay; design: species or system Canis lupus familiaris
[13] = Solubility of compound in 0.1 N HCl measured after 5 to 6 hrs by HPLC-UV based analysis; assay type: physicochemical; conditions: buffer; time 5-6 hrs
[14] = Solubility of compound in FaSSIF at pH 6.5 measured after 5 to 6 hrs by HPLC-UV based analysis
[15] = AUC (0 to infinity) in Sprague-Dawley rat at 18.3 mg/kg, po measured over 24 hrs by LC-MS analysis; assay type: ADME, organism-based; design: route oral, dose 18.3 mg/kg, time >24; conditions: in vivo
[16] = Lipophilicity, logD of the compound at pH 7.4; assay type: physicochemical; conditions: buffer
[17] = Unbound Cmax in Sprague-Dawley rat at 18.3 mg/kg, po measured over 24 hrs by LC-MS analysis; assay type: ADME, organism-based; conditions: in vivo
[18] = in vivo; conditions: Sprague-Dawley, rat, po, 18.3 mg/kg
[19] = Inhibition of N-terminal His6-tagged Plasmodium falciparum DHODH expressed in Escherichia coli BL21 using L-DHO as substrate and CoQ as co-substrate by DCIP dye based spectrophotometric assay
[20] = Protein binding in Sprague-Dawley rat plasma at […], iv administered as infusion for 10 mins by LC-MS analysis; assay type: ADME, organism-based; conditions: dose 1.1 mg/kg, read-out: PPB (converted)
[21] = Protein binding in rat plasma assessed as bound fraction by LC-MS analysis based ultracentrifugation assay; assay type: ADME, cell-free; conditions: read-out: PPB (converted)
[22] = Unbound AUC (0 to infinity) in Sprague-Dawley rat at 18.3 mg/kg, po measured over 24 hrs by LC-MS analysis; assay type: ADME, organism-based; conditions: in vivo
[23] = Kinetic solubility of compound in phosphate buffer at pH 6.5 measured after 30 mins by HPLC-UV based analysis; assay type: physicochemical; conditions: phosphate buffer, pH 6.5, read-out: Kinetic_solubility
[24] = Volume of distribution at steady state in Sprague-Dawley rat at […], iv administered as infusion for 10 mins by LC-MS analysis; assay type: ADME, organism-based; conditions: in vivo, dose 1.1 mg/kg
[25] = Unbound clearance in Sprague-Dawley rat at […], iv administered as infusion for 10 mins by LC-MS analysis; assay type: ADME, organism-based; conditions: in vivo, dose 1.1 mg/kg
[26] = Unbound AUC (0 to infinity) in Swiss mouse at 20 mg/kg, po administered as single dose via gavage measured over 24 hrs by LC-MS analysis; assay type: ADME, organism-based; conditions: in vivo
[27] = Protein binding in Swiss mouse plasma at 20 mg/kg, po administered as single dose via gavage measured over 24 hrs by LC-MS analysis; assay type: ADME, organism-based; conditions: read-out: PPB (converted)
[28] = Unbound Cmax in Swiss mouse at 20 mg/kg, po administered as single dose via gavage measured over 24 hrs by LC-MS analysis; assay type: ADME, organism-based; conditions: in vivo
[29] = system: Plasmodium falciparum; assay: Antiplasmodial activity against Plasmodium falciparum 3D7 infected in RBC assessed as reduction in parasitemia incubated for 72 hrs by SYBR green dye-based assay; assay type: functional, organism-based; conditions: rbc
[30] = Cmax in Sprague-Dawley rat at 18.3 mg/kg, po measured over 24 hrs by LC-MS analysis; assay type: ADME, organism-based; design: route oral, dose 18.3 mg/kg, time >24; conditions: in vivo
[31] = Inhibition of N-terminal His6-tagged Plasmodium vivax DHODH expressed in Escherichia coli BL21 using L-DHO as substrate and CoQ as co-substrate by DCIP dye based spectrophotometric assay
[32] = Inhibition of yeast DHODH expressed in Plasmodium falciparum; design: species or system Saccharomyces cerevisiae
[33] = Unbound volume of distribution at steady state in Sprague-Dawley rat at […], iv administered as infusion for 10 mins by LC-MS analysis; assay type: ADME, organism-based; conditions: in vivo, dose 1.1 mg/kg
[34] = AUC (0 to infinity) in Swiss mouse at 20 mg/kg, po administered as single dose via gavage measured over 24 hrs by LC-MS analysis; assay type: ADME, organism-based; design: route oral, dose 20 mg/kg, time >24; conditions: in vivo
[35] = Solubility of compound in FeSSIF at pH 5 measured after 5 to 6 hrs by HPLC-UV based analysis; assay type: physicochemical; conditions: simulated gi fluid, time 5-6 hrs
[36] = Cmax in Sprague-Dawley rat at 24.4 mg/kg, po measured over 24 hrs by LC-MS analysis; assay type: ADME, organism-based; design: route oral, dose 24.4 mg/kg, time >24; conditions: in vivo
[37] = Protein binding in mouse plasma assessed as bound fraction by LC-MS analysis based ultracentrifugation assay; assay type: ADME, cell-free; conditions: read-out: PPB (converted)
[38] = Unbound clearance in Sprague-Dawley rat at 2 mg/kg, iv administered as infusion for 10 mins by LC-MS analysis; assay type: ADME, organism-based; conditions: in vivo
[39] = Unbound AUC (0 to infinity) in Sprague-Dawley rat at 24.4 mg/kg, po measured over 24 hrs by LC-MS analysis; assay type: ADME, organism-based; conditions: in vivo
[40] = AUC (0 to infinity) in Sprague-Dawley rat at 2 mg/kg, iv administered as infusion for 10 mins by LC-MS analysis; assay type: ADME, organism-based; design: route intravenous, dose 2 mg/kg, time 10 min; conditions: in vivo
[41] = Unbound AUC (0 to infinity) in Sprague-Dawley rat at 2 mg/kg, iv by LC-MS analysis; assay type: ADME, organism-based; conditions: in vivo
[42] = Volume of distribution at steady state in Sprague-Dawley rat at 2 mg/kg, iv administered as infusion for 10 mins by LC-MS analysis; assay type: ADME, organism-based; conditions: in vivo
[43] = biological target: Cytochrome P450 3A4 (Homo sapiens, UniProt P08684); assay: Inhibition of CYP3A4 in human liver microsomes using isoform-specific probe substrates in presence of NADPH-generating system by LC-MS analysis; assay type: ADME
[44] = AUC (0 to infinity) in Sprague-Dawley rat at 24.4 mg/kg, po measured over 24 hrs by LC-MS analysis; assay type: ADME, organism-based; design: route oral, dose 24.4 mg/kg, time >24; conditions: in vivo
[45] = Solubility of compound in FeSSIF at pH 5.8 measured after 5 to 6 hrs by HPLC-UV based analysis; assay type: physicochemical; conditions: simulated gi fluid, time 5-6 hrs
[46] = Unbound Cmax in Sprague-Dawley rat at 24.4 mg/kg, po measured over 24 hrs by LC-MS analysis; assay type: ADME, organism-based; conditions: in vivo
[47] = Apparent half-life in Sprague-Dawley rat at 2 mg/kg, iv administered as infusion for 10 mins by LC-MS analysis; assay type: ADME, organism-based; conditions: in vivo, read-out: t1/2(app) (converted)
[48] = Protein binding in Sprague-Dawley rat plasma at 2 mg/kg, iv administered as infusion for 10 mins by LC-MS analysis; assay type: ADME, organism-based; conditions: read-out: PPB (converted)
[49] = Oral bioavailability in Sprague-Dawley rat at 24.4 mg/kg measured over 24 hrs by LC-MS analysis; assay type: ADME, organism-based; conditions: in vivo
[50] = Unbound volume of distribution at steady state in Sprague-Dawley rat at 2 mg/kg, iv administered as infusion for 10 mins by LC-MS analysis; assay type: ADME, organism-based; conditions: in vivo
[51] = in vivo; conditions: Sprague-Dawley, rat, po, 24.4 mg/kg

Sequence of Cytochrome P450 3A4 (P08684 whole entry, canonical isoform): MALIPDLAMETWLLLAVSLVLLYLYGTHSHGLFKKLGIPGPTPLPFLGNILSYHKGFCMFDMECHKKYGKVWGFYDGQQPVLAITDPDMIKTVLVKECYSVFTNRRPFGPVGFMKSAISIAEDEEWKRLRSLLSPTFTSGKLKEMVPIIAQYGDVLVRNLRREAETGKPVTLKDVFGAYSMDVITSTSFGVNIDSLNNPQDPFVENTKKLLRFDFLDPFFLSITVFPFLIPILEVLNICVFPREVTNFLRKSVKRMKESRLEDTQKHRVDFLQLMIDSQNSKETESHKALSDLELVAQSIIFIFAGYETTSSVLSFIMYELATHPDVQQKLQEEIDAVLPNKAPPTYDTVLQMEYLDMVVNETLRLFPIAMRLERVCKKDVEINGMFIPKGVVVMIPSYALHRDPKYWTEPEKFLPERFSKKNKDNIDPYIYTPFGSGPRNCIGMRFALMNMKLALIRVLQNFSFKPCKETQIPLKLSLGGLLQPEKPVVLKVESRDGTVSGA

SMILES | Cmax [1] [µM] | fraction unbound [3] | intrinsic clearance [6] [µL/min] | Tmax [7] [h] | Intrinsic clearance in rat liver microsomes (uL/min/mg protein) [8] [µL/min] | t1/2(app) [9] [h] | half-life [11] [h] | IC50 [12] [nM] | solubility [13] [µg/mL] | solubility [14] [µg/mL] | logD [16] | IC50 [19] [nM] | fraction unbound [21] | solubility kinetic at 0.5 h [23] [µg/mL] | fAUC [26] [µM·h] | fraction unbound at 24 h [27] | fCmax [28] [µM] | EC50 [29] [nM] | IC50 [31] [nM] | AUC [34] [µM·h] | other results
Cc1cc(NC2CCc3ccc(Br)cc3C2)n2nc(C(C)(F)F)nc2n1 (stereo in doubt) | 4.5 | 0.037 | 32 | 1 | 39 | 2.1 | 2 | > 100000 | 52 (≈ 123 µM) | 8.3 (≈ 19.7 µM) | 4 | 4.6 | 0.028 | 1.6 (≈ 3.79 µM) | 0.47 | 0.028 | 0.13 | 0.39 | 12 | 16.7 | half-life at 10 min [2]: 6.1 h; AUC(0-inf) at 10 min [4]: 2 µM·h; bioavailability [5]: 86%; fAUC [10]: 0.05 µM·h; AUC(0-inf) [15]: 28.1 µM·h; fCmax [17]: 0.07 µM; Tmax at 24 h [18]: 3.3 h; fraction unbound at 10 min [20]: 0.028; fAUC [22]: 0.79 µM·h; Vdss [24]: 8.7 L/kg; CL free [25]: 800 mL/min/kg; Cmax [30]: 2.7 µM; EC50 [32]: 7400 nM; fVdss [33]: 311 L/kg; solubility [35]: 39 µg/mL (≈ 92.4 µM)
Cc1cc(NC2CCc3cc(Br)ccc3C2)n2nc(C(C)(F)F)nc2n1 (stereo in doubt) | 8.6 | 0.01 | 26 | 1 | 11 | 2.1 | 2 | > 100000 | 189 (≈ 448 µM) | 13 (≈ 30.8 µM) | 4 | 4.6 | 0.003 | 3.1 (≈ 7.34 µM) | 0.41 | 0.008 | 0.07 | 2.6 | 24 | 51 | Cmax [36]: 37 µM; fraction unbound [37]: 0.008; CL free [38]: 933 mL/min/kg; fAUC [39]: 0.95 µM·h; AUC(0-inf) [40]: 30 µM·h; fAUC [41]: 0.09 µM·h; Vdss [42]: 1.1 L/kg; IC50 [43]: > 20000 nM; AUC(0-inf) [44]: 318 µM·h; solubility [45]: 211 µg/mL (≈ 500 µM); fCmax [46]: 0.11 µM; half-life [47]: 6.2 h; fraction unbound at 10 min [48]: 0.003; bioavailability [49]: 86%; fVdss [50]: 367 L/kg; Tmax at 24 h [51]: 2.5 h
